pIC50: −log10 of the molar value.
Key:
Assay type in all cases: biochemical
CDKL3(h) = molecular target: T1, CDKL3(h) (Homo sapiens, UniProt Q8IVW4); assay: radiometric kinase assay (KinaseProfiler, Eurofins), CDKL3; conditions: in vitro radiometric kinase assay, tested at 1 nM to 10 000 nM, no pre-incubation; read-out: inhibitory activities (IC50 values) CDKL3
T1 construct: purchased Eurofins (KinaseProfiler)

PIM1 (h) = molecular target: T2, PIM1 (h) (Homo sapiens, UniProt P11309); assay: radiometric kinase assay (KinaseProfiler, Eurofins), PIM1; conditions: in vitro radiometric kinase assay, tested at 1 nM to 10 000 nM, no pre-incubation; read-out: inhibitory activities (IC50 values) PIM1
T2 construct: purchased Eurofins (KinaseProfiler)
T2 sequence (P11309 whole entry): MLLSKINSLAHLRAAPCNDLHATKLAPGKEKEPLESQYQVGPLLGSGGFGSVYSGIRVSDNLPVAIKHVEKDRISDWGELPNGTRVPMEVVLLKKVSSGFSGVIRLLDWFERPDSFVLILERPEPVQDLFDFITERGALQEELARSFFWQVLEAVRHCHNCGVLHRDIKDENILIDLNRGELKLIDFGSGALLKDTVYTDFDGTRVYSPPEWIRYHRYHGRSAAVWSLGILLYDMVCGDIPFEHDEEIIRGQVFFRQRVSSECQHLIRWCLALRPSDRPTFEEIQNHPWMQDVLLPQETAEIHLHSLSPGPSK
Summary of the method: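 Human PIM1 in 8 mM MOPS pH 7.0, 0.2 mM EDTA, 10 mM magnesium acetate, 100 µM KKRNRTLTV and γ-33P-ATP; started with Mg/ATP without compound preincubation, 40 min at room temperature. Filter-bound 33P counted; remaining activity versus DMSO at 1–10 000 nM gave IC50.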

CDKL4(h) = molecular target: T3, CDKL4(h) (Homo sapiens, UniProt Q5MAI5); assay: radiometric kinase assay (KinaseProfiler, Eurofins), CDKL4; conditions: in vitro radiometric kinase assay, tested at 1 nM to 10 000 nM, no pre-incubation; read-out: inhibitory activities (IC50 values) CDKL4
T3 construct: purchased Eurofins (KinaseProfiler)
T3 sequence (Q5MAI5 whole entry): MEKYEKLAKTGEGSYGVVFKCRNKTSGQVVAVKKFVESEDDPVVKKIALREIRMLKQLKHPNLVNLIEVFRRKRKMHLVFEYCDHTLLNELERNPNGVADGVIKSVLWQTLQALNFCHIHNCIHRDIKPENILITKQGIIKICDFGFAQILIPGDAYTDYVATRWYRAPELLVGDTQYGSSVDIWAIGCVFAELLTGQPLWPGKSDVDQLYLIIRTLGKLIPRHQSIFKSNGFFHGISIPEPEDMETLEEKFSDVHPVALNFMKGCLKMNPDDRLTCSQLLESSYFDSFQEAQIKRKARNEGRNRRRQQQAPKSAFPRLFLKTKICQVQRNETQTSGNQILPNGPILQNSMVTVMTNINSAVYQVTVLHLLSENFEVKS

TRB2(h) = molecular target: T4, TRB2(h) (Homo sapiens, UniProt Q92519); assay: radiometric kinase assay (KinaseProfiler, Eurofins), TRB2; conditions: in vitro radiometric kinase assay, tested at 1 nM to 10 000 nM, no pre-incubation; read-out: inhibitory activities (IC50 values) TRB2
T4 construct: purchased Eurofins (KinaseProfiler)
T4 sequence (Q92519 1-343): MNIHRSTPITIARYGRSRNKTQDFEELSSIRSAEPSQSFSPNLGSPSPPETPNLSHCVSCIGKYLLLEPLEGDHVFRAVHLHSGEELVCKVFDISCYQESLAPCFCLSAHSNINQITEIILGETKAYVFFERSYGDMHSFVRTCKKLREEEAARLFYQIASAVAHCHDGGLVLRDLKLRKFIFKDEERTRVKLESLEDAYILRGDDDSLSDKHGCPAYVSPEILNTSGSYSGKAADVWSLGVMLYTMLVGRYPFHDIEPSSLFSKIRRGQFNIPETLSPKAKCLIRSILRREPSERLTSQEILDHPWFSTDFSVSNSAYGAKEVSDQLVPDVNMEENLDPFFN

CLK2 (h) = molecular target: T5, CLK2 (h) (Homo sapiens, UniProt P49760); assay: radiometric kinase assay (KinaseProfiler, Eurofins), CLK2; conditions: in vitro radiometric kinase assay, tested at 1 nM to 10 000 nM, no pre-incubation; read-out: inhibitory activities (IC50 values) CLK2
T5 construct: purchased Eurofins (KinaseProfiler)
T5 sequence (P49760 whole entry): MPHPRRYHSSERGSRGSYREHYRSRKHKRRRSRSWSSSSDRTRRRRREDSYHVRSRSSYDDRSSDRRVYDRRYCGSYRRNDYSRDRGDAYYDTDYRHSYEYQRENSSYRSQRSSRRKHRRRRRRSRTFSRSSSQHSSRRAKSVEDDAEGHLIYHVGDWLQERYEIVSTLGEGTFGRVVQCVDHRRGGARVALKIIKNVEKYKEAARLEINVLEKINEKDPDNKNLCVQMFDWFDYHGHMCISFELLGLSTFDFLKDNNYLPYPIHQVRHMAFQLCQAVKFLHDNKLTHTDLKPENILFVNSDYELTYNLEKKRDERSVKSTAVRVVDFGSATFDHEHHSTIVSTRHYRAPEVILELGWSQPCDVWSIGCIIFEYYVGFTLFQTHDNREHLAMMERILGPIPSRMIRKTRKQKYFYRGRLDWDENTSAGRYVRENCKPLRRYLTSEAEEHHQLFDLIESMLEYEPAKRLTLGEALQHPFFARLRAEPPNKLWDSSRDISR
Summary of the method: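 Radiometric filter-binding assay: human CLK2 in 8 mM MOPS pH 7.0 with 20 µM peptide substrate, 10 mM Mg acetate and γ-33P-ATP, no compound preincubation; 40 min at room temperature. Activity relative to DMSO over 1–10 000 nM compound; IC50 by curve fit.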

T1 sequence (Q8IVW4 whole entry): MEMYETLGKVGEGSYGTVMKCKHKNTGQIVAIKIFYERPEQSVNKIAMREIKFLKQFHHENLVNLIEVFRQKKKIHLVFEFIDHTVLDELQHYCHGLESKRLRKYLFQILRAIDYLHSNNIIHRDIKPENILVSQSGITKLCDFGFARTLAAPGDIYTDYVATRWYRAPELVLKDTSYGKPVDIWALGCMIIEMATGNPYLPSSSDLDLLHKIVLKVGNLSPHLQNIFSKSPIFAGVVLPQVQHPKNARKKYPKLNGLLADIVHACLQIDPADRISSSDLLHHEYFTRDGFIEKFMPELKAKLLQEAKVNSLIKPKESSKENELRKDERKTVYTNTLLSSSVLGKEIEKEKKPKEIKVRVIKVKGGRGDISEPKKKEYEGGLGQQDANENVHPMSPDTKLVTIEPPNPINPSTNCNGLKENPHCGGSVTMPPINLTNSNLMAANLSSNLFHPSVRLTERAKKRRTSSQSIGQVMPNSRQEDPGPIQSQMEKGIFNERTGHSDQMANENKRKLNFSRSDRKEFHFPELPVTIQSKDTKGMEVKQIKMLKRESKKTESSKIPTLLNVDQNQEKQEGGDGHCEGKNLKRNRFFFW

Compound: COc1cc(-c2ccn(C)n2)nc2c(-c3ccncc3)csc12 [Preparative Example 165, 7-methoxy-5-(1-methyl-1H-pyrazol-3-yl)-3-(pyridin-4-yl)thieno[3,2-b]pyridine]
- pIC50 (CDKL3(h)): 5.52 to 6.30
- pIC50 (PIM1 (h)): 5.00 to 5.52
- pIC50 (CDKL4(h)): 5.52 to 6.30
- pIC50 (TRB2(h)): 5.52 to 6.30
- pIC50 (CLK2 (h)): 5.00 to 5.52

— patent EP4483954A1 (Masarykova Univerzita, priority 2023, dated 2025)
